Data: US7902361B2, “Pyrimidin-4-yl-3, 4-thione compounds and their use in therapy” (Cyclacel Limited, priority 2003, dated 2011)
Where two headings read alike, the source gives them in different places.

Tests used:
[1] = system: PEPCK gene expression; assay: PEPCK gene expression assay - qPCR in HEPG2 cells; type: cell-based; conditions: Homo sapiens, HepG2, HEPG2, read-out: PEPCK gene expression, % of maximum stimulation
Description: PEPCK gene expression was studied in HEPG2 (hepatocarcinoma) cells, seeded in 6-well plate at […] per well. The cells were serum-starved for 20 hours before treatment with dexamethasone/cAMP (stimulator of PEPCK gene expression) in the presence or absence of insulin or GSK3 inhibitor example compounds. After 3 hours treatment the cells were harvested, lysed and RNA extracted using mini RNeasy spin columns (Quiagen). The primer set COD2063/COD2064 (350 bp) was used for the PEPCK gene. The one step RT-PCR was carried out using the Lightcycler-RNA Master SYBR Green 1 Kit. The qPCR analysis calculates the number of the PCR cycles required for the PCR product amplification to reach logarithmic phase. QPCR for a housekeeping gene—28S—was used for normalisation. PEPCK is a key enzyme in gluconeogenesis in the liver and it is known to be negatively regulated by insulin via inhibition of GSK3. The effect of example compounds on PEPCK gene expression was studied in HEPG2 cells treated with dexamethasone/cAMP (a positive regulator PEPCK gene expression) in the presence or absence of insulin or GSK3 inhibitors. Example compound inhibitors of GSK3 were efficient in the abolishment of dexamethasone/cAMP induced stimulation of PEPCK gene expression in HEPG2 cells.

[2] = Blood levels of test compounds in ZDF fa/fa rats; type: in vivo, rat; conditions: 30 mg/kg per os twice; for oral bioavailability (blood levels at 30 and 60 min after the glucose load): male ZDF fa/fa rats; for concentration at 30 min / concentration at 60 min: male, rat, whole blood, oral; for concentration at 30 min / concentration at 60 min / Average Blood levels: ZDF fa/fa rats
Description: The ability of example compounds of the present invention to improve glucose metabolism was tested in 12-13 week old male ZDF fa/fa rats. The test animals (10-15 mmol/L fasting glucose level) were dosed twice at 30 mg/kg and the glucose challenge was given at time 0. […] Most of these blood levels were below the EC50 values determined in cellular assays.
12-13 weeks old male ZDF fa/fa rats were used to study the effect of example compounds on oral glucose tolerance. […] Body weight was recorded three times per week. Test compounds were dissolve in a formulation of 10% DMSO, 5% Tween, 5% Span 20, 30% PEG 400 and 50% water (v/v) to provide final solutions at 5 mg/mL concentration. Each experimental group contained 7 animals. After an 16 h overnight fast the test compounds were administered at 30 mg/kg per os twice (at −270 min and −30 min) before the oral glucose tolerance test was commenced (2 g glucose/kg per os as a 40% solution introduced via feeding tube). A control group was dosed in a similar manner with the vehicle only. Blood sampling for blood glucose measurement (20 μL blood) was performed at −270, 0, 15, 30, 60, 90, 120 and 180 min. Mixed venous blood was collected from the tail vein into 20-μL glass capillaries, which were placed in a standard tube filled with 1 mL solution for hemolysis. Glucose levels were measured using the glucose oxidase procedure (Super G Glukosemessgeraet; Dr Mueller Geraetebau, Freital, Germany). In addition, 50 μL blood samples were taken at 30 and 60 min after the glucose dose, placed in heparinized tubes, which were then frozen immediately in liquid nitrogen. The bioanalytical method used employed isocratic elution liquid chromatography—tandem mass spectrometry in electrospray positive ion multiple reaction monitoring mode.

[3] = molecular target: CDK2/cyclin E (Homo sapiens, UniProt P24941); assay: Kinase assay CDK2/cyclin E; type: biochemical; conditions: Ki calculated (Cheng-Prusoff) from experimentally determined IC50 and Km,ATP; read-out: Kinase Inhibition Ki CDK2 - cyclin E
Outline: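 Radiometric assays measured transfer of radioactive phosphate from ATP onto polypeptide substrates, using 2-4 μg recombinant active enzyme in buffer typically containing 25 mM β-glycerophosphate, 20 mM MOPS, 5 mM EGTA, 1 mM DTT and 1 mM Na3VO3 at pH 7.4. Reactions were stopped on ice, filtered on P81 or GF/C plates and washed with orthophosphoric acid. Incorporated radioactivity was scintillation-counted.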

[4] = molecular target: CDK7/cyclin H (Homo sapiens, UniProt P50613); assay: Kinase assay CDK7/cyclin H; type: biochemical; conditions: Ki calculated (Cheng-Prusoff) from experimentally determined IC50 and Km,ATP; read-out: Kinase Inhibition Ki CDK7 - cyclin H
Chain of CDK7/cyclin H (P50613 whole entry, species assumed): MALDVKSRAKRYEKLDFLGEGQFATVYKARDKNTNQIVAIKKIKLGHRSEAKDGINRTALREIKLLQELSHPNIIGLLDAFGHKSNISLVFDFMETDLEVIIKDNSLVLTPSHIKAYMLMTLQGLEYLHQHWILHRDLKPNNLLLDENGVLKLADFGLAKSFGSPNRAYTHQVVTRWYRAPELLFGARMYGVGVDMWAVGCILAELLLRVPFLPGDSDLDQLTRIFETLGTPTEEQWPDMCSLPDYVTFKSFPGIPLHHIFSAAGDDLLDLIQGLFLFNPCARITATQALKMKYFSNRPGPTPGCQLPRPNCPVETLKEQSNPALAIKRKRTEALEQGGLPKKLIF
Chain of CDK7/cyclin H (P51946 whole entry partner, species assumed): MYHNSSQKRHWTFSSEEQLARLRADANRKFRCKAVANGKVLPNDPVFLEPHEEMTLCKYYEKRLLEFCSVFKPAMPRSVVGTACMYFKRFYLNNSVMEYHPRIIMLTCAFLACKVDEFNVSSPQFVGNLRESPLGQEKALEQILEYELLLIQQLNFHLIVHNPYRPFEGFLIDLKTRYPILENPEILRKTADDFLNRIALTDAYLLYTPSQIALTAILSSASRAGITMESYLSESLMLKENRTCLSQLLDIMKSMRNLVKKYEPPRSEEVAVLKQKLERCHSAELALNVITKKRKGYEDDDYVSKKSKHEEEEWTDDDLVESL
Outline: (§1)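 Radiometric filter assays used recombinant kinases or complexes (2-4 μg) with appropriate polypeptide substrates in pH 7.4 β-glycerophosphate/MOPS buffer. Reactions were started with 15 mM MgCl2 and 100 μM ATP containing [γ-32P]-ATP and run at 30° C. Phosphate incorporated into substrate was counted by scintillation after washing.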

[5] = molecular target: CDK4/cyclin D1 (Homo sapiens, UniProt P11802); assay: Kinase assay CDK4/cyclin D1; type: biochemical; conditions: Ki calculated (Cheng-Prusoff) from experimentally determined IC50 and Km,ATP; read-out: Kinase Inhibition Ki CDK4 - cyclin D1
Chain of CDK4/cyclin D1 (P11802 whole entry, species assumed): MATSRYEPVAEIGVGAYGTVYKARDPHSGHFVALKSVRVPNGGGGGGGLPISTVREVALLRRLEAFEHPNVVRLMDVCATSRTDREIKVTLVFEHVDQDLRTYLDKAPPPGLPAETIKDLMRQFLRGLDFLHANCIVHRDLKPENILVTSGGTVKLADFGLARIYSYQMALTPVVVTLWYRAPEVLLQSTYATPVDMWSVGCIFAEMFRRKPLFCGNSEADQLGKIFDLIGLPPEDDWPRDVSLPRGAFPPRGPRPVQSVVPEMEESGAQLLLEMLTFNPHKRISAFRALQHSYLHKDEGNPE
Chain of CDK4/cyclin D1 (P24385 whole entry partner, species assumed): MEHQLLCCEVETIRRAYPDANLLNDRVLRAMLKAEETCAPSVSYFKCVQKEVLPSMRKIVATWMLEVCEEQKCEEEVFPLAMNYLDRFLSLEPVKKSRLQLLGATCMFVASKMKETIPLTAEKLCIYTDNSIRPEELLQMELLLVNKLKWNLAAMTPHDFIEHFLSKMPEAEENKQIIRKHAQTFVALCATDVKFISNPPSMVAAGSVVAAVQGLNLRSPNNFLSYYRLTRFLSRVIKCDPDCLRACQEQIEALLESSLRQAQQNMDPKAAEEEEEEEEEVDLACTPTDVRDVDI
Outline: as §1

Compound: Cc1c(-c2ccnc(Nc3cc(Br)cc(C(F)(F)F)c3)n2)sc(=O)n1C [Compound 68, 5-[2-(3-Bromo-5-trifluoromethyl-phenylamino)-pyrimidin-4-yl]-3,4-dimethyl-3H-thiazol-2-one]
- Emax ([1]; 10 μM + Dex/cAMP): 60.7 ± 20%
- oral bioavailability (blood levels at 30 and 60 min after the glucose load) [2]: some oral bioavailability
- concentration at 30 min ([2]; time 30 min): 115 ng/mL
- concentration at 60 min ([2]; time 60 min): 70.1 ng/mL

Compound: Cc1c(-c2ccnc(Nc3cccc(S(=O)(=O)NCCO)c3)n2)sc(=O)n1C [Compound 75, 3-[4-(3,4-Dimethyl-2-oxo-2,3-dihydro-thiazol-5-yl)-pyrimidin-2-ylamino]-N-(2-hydroxy-ethyl)-benzenesulfonamide]
- Ki [3]: 380 nM
- Emax ([1]; 1 μM + Dex/cAMP): 37.2 ± 0.37%
- Emax ([1]; 10 μM + Dex/cAMP): 17.1 ± 0.68%
- Ki [4]: 370 nM
- Ki [5]: 150 nM

Compound: CCNS(=O)(=O)c1cccc(Nc2nccc(-c3sc(=O)n(C)c3C)n2)c1 [Compound 62, 3-[4-(3,4-Dimethyl-2-oxo-2,3-dihydro-thiazol-5-yl)-pyrimidin-2-ylamino]-N-ethyl-benzenesulfonamide]
- Ki [3]: 350 nM
- concentration at 30 min ([2]; time 30 min): 27.6 ng/mL
- concentration at 60 min ([2]; time 60 min): 29.7 ng/mL
- Ki [4]: 1100 nM
- Ki [5]: 330 nM

Compound: CC(=O)Nc1cc(Nc2nccc(-c3sc(=O)n(C)c3C)n2)cc(C(F)(F)F)c1 [Compound 64, N-{3-[4-(3,4-Dimethyl-2-oxo-2,3-dihydro-thiazol-5-yl)-pyrimidin-2-ylamino]-5-trifluoromethyl-phenyl}-acetamide]
- Emax ([1]; 0.1 μM + Dex/cAMP): 11.4 ± 3.2%
- oral bioavailability (blood levels at 30 and 60 min after the glucose load) [2]: some oral bioavailability
- concentration at 30 min ([2]; time 30 min): 248 ng/mL
- concentration at 60 min ([2]; time 60 min): 268 ng/mL
- Ki [4]: 3900 nM

Compound: CNc1cc(Nc2nccc(-c3sc(=O)n(C)c3C)n2)cc(C(F)(F)F)c1 [Compound 76, 3,4-Dimethyl-5-[2-(3-methylamino-5-trifluoromethyl-phenylamino)-pyrimidin-4-yl]-3H-thiazol-2-one]
- Ki [3]: 89 nM
- Average Blood levels ([2]; time 30 min): 43.0 ng/mL
- Average Blood levels ([2]; time 60 min): 48.1 ng/mL
- Ki [4]: 800 nM

Compound: COCCNS(=O)(=O)c1cccc(Nc2nccc(-c3sc(=O)n(C)c3C)n2)c1 [Compound 67, 3-[4-(3,4-Dimethyl-2-oxo-2,3-dihydro-thiazol-5-yl)-pyrimidin-2-ylamino]-N-(2-methoxy-ethyl)-benzenesulfonamide]
- Emax ([1]; 1 μM + Dex/cAMP): 101 ± 38.2%
- Emax ([1]; 10 μM + Dex/cAMP): 17.4 ± 0.97%
- oral bioavailability (blood levels at 30 and 60 min after the glucose load) [2]: some oral bioavailability
- concentration at 30 min ([2]; time 30 min): 350 ng/mL
- concentration at 60 min ([2]; time 60 min): 271 ng/mL
- Ki [4]: 360 nM
- Ki [5]: 1400 nM
